We go through 3 sequences from publication PMC8096218, “Global RNA profiles show target selectivity and physiological effects of peptide-delivered antisense antibiotics” (Nucleic Acids Research, 2021).

Assay [1] deals with Salmonella gene expression. Briefly: RNA-seq transcriptomic response. The note with it: 15 min. The class given is cell-based, Salmonella enterica serovar Typhimurium. Here is the method: Bacterial overnight cultures were diluted 1:100 in fresh MHB and grown to OD600 0.5. The obtained cultures were diluted to ∼10^6 cfu/ml in non-cation-adjusted MHB. Afterward, the bacterial solution was transferred into low-binding 5 ml tubes (LABsolute) along with the 20× PNA, peptide or PPNA solution. The final concentrations were 5 μM for KFF- and RXR-PNAs, and 10 μM for Tat-PNAs. Equimolar concentrations were used for the respective peptide control conditions. As a negative control, cells were treated with the respective volume of sterile nuclease-free water, which was used as solvent for the test compounds.
A time kinetic was performed for subsequent northern blot analysis (5, 10, 15 min), in which the reaction was stopped at the indicated time points by using RNAprotect Bacteria (Qiagen). For RNA-seq analyses, adding RNAprotect Bacteria at 15 min post treatment stopped the reactions with the indicated PPNA constructs or the respective peptide. After vortexing for 5 s, the samples were incubated at room temperature for 10 min, followed by cell pelleting at 4°C and 21 100 ×g for 20 min. Pellets were directly used for RNA isolation or stored at –20°C (<2 days) until further processing. RNA was purified from bacterial pellets using isolation protocol #3, as described above (0.5 mg/ml lysozyme, miRNeasy).
DNase treatment, cDNA library preparation and sequencing was conducted at Vertis (Munich, Germany). The RNA samples were first fragmented using ultrasound (4 pulses of 30 s each at 4°C). Then, an oligonucleotide adapter was ligated to the 3′ ends of the RNA molecules. First-strand cDNA synthesis was performed using M-MLV reverse transcriptase and the 3′ adapter as primer. The first-strand cDNA was purified and the 5′ Illumina TruSeq sequencing adapter was ligated to the 3′ end of the antisense cDNA. The resulting cDNA was PCR-amplified to about 10–20 ng/μl using a high fidelity DNA polymerase. The cDNA was purified using the Agencourt AMPure XP kit (Beckman Coulter Genomics) and was analyzed by capillary electrophoresis. For Illumina NextSeq sequencing, the samples were pooled in approximately equimolar amounts. The cDNA pool was sequenced on an Illumina NextSeq 500 system using 75 bp read length.
Reads from the RNA-Seq experiments were trimmed, filtered and mapped against the S. enterica subsp. enterica serovar Typhimurium SL1344 reference genome and the three plasmids pSLT_SL1344, pCol1B9_SL1344 (other name is p2), and pRSF1010_SL1344 ([19]). BBDuk was applied to trim bases with a Phred quality score of <10, and adapters were removed simultaneously. Reads were then mapped against the reference genome using BBMap (v38.84) and then assigned genomic features, including both coding sequences and annotated sRNAs ([19],[29]) using the featureCounts method of the Subread (2.0.1) package.
All downstream analysis was performed using packages from the R/Bioconductor project. The raw read counts were imported and analyzed with edgeR (v3.30.0). Each set of PNA-peptide conjugate experiments (i.e. experiments with KFF, RXR and Tat peptide) was analyzed simultaneously. Genes with less than 14.6 counts per million (CPM) in at least three libraries were filtered. This cutoff value was calculated using 10/L, where L is the library size of the smallest sample (minimum library size) in millions.
Raw read counts were normalized by trimmed mean of M values (TMM) normalization. Differential expression analysis was conducted using edgeR ([31]). Estimation of quasi-likelihood (QL) dispersions was then run with the […] function. Then contrasts between all samples versus the water controls were created as input for the glmQLTest function.
Genes with an absolute fold change >2 and an adjusted P-value (Benjamini–Hochberg, ([32])) <0.001 were considered differentially expressed.

Another assay relates to SL1344 ΔphoP. Briefly: MIC determination by broth microdilution. The class given is cell-based, Salmonella enterica serovar Typhimurium. The conditions noted are these: ∼10^5 cfu/ml; for MIC in μM, SL1344 ΔphoP: Table 3, three biological replicates. The protocol: (§1) MIC values were determined by broth microdilution according to standard protocols with a few modifications ([26]). An overnight bacterial cell culture, supplemented with the appropriate antibiotic when needed, was diluted 1:100 in fresh MHB and grown to OD600 0.5. The obtained culture was diluted to ∼10^5 cfu/ml or 10^6 cfu/ml, as indicated, in non-cation-adjusted MHB. Subsequently, 190 μl bacterial solution was dispensed into a 96-well plate (Thermo Fisher Scientific) along with 10 μl of a 20x PPNA, PNA or peptide working solution. Growth was monitored by measuring the OD at 600 nm every 20 min in a Synergy H1 plate reader (Biotek) with continuous double-orbital shaking (237 cpm) at 37°C for 24 h.
Fig. S4. Growth kinetics for MIC determ ination of 10^5 cfu/m l Salmonella wt (SL1344) and its isogenic ∆phoP m utant in the pres ence of var ying concentrations of the indicated conjugates. ( A) KFF-acpP, KFF-acpP-scram bled (scr) or KFF peptide in serial dilutions from 10 µM to 0.3 µM. ( B) RXR- acpP, RXR-acpP-scram bled (scr) or RXR peptide in seria l d ilutions f rom 10 µM to 0. 3 µM. ( C) T at-acpP, T at-acpP-scrambled (scr) or T at peptide in serial dilutions from 20 µM to 0.6 µM. D ata represent the average of three biological replicates, error bars indicate standard er ror of the m ean […]
(§2) (1 picture or pasted object on this page, not shown here)

For assay [2], the system named is wild-type Salmonella enterica serovar Typhimurium strain LT2. Briefly: MIC determination by broth microdilution. The conditions noted are these: Table 3; ∼10^5 cfu/ml; three biological replicates. The class given is cell-based. The protocol: as §1
Fig. S5. Growth k inetics for MIC determ ination of 10^5 cfu/m l Salmonella wt (LT 2) and its isogenic
Pho PC m utant in the presen ce of var ying co ncentra tio n s of the in dicat ed co njugat e s. ( A) KFF-acpP,
KFF-acpP-scram bled (scr) or KFF peptide in s erial dilutions from 10 µM to 0.3 µM. ( B) RXR- acpP,
RXR- acpP-scram bled (scr) or RXR peptide in serial dilutions from 10 µM to 0.3 µ M. ( C) T at-acpP,
T at-acpP-scram bled (scr) or T at peptide in serial dilutions from 20 µM to 0.6 µM. Data represent
the average of three biological replicates, error bars indicate standard error of the m ean (SEM).
as §2
(Broth dilution looks for growth in wells or tubes with falling amounts of substance.)

Assay [3] deals with wild-type (wt) Salmonella enterica serovar Typhimurium strain SL1344. The conditions noted are these: for MIC: non-cation-adjusted MHB, 37°C, 24 h; for MIC in μM, SL1344 wt: Table 3, three biological replicates. Here is the method:
as §1

The mark [4] stands for this setting: edgeR, versus water, 5 μM RXR-constructs, 10 μM Tat-constructs, triplicates, listed as PNARXR.
Where [5] appears, read: Table 1, ∼10^5 cfu/ml, lowest concentration with OD600 < 0.1.
[6] abbreviates: Table 2, ∼10^6 cfu/ml, performed three times.
The mark [7] stands for this setting: edgeR, versus water, 5 μM RXR-constructs, 10 μM Tat-constructs, triplicates, listed as PNATAT.
The mark [8] stands for this setting: edgeR, versus water, 5 μM KFF-/RXR-constructs, 10 μM Tat-constructs, triplicates, listed as PNAKFF.

“And” between values parts separate entries of the source, which are not always exact repeats. Equal values may be shown once. Read-outs that look alike come from different tables or passages of the source.

As usually defined, the MIC is the lowest concentration found to suppress growth. On to RXRRXRRXRRXRXB [RXR-acpP], for which, in assay [1] (RNA-seq, 5 μM), the “number of downregulated sRNAs, apart from the induction of AmgR” value was “four” and the “upregulation of mig-14” value is 1.89 fold. In addition, in assay [1] (setting [4]), the “logFC SL1344_0066A” value is 4.762, the “logFC SL1344_2742” value was determined as 3.54 and the “logFC mgtA” value is listed as 1.7. The sequence also displayed a logFC hfq in assay [1] (edgeR, versus water, 5 μM, triplicates) of -1.309. Besides, the “MIC in μM, SL1344 ΔphoP” value in the assay on SL1344 ΔphoP lay within 1.25 to 2.5 µM. Further, the “MIC in μM, LT2 wt” value in assay [2] was found to be 1.25 µM. Besides, the minimum inhibitory concentration (MIC) in assay [3] (Table 1, ∼10^5 cfu/ml) turned out to be 11 mg/L. In addition, in assay [3] (setting [5]), the minimum inhibitory concentration (MIC) is 2.5 µM. Also, in assay [3] (setting [6]), the “MIC” value was 5 µM. The “MIC in μM, SL1344 wt” value in assay [3] (∼10^5 cfu/ml) worked out at 2.5 µM.

In the case of GRKKKRRQRRRYK [Tat-acpP], the “number of differentially expressed sRNAs, apart from AmgR upregulation” value in assay [1] (RNA-seq, 10 μM) is “five”. Further, the “logFC SL1344_0066A” value in assay [1] (setting [7]) came to 4.741. Further, the “logFC SL1344_2742” value in assay [1] (setting [7]) was 3.794. In addition, the “logFC sseG” value in assay [1] (edgeR, versus water, 10 μM, triplicates) worked out at 3.37. Also, in assay [1] (edgeR, versus water, 10 μM, triplicates, listed as PNATAT), the “logFC recJ” value is given as 1.967. Also, in the assay with SL1344 ΔphoP (SL1344 ΔphoP versus SL1344 wt), the “reduction in the MIC of the ΔphoP strain compared to wild-type Salmonella” value came out at 2 fold. For the same sequence, the “MIC in μM, SL1344 ΔphoP” value with SL1344 ΔphoP turned out to be 2.5 µM. In addition, the “MIC in μM, LT2 wt” value in assay [2] is 2.5 to 5 µM. The “MIC” value in assay [3] (Table 1, ∼10^5 cfu/ml) is 22 mg/L; in assay [3] (setting [5]), 5 µM; in assay [3] (setting [6]), 10 µM. Moreover, the “MIC in μM, SL1344 wt” value in assay [3] (∼10^5 cfu/ml) came to 5 µM.

Take KFFKFFKFFK [KFF-acpP]: the “number of differentially expressed genes” value in assay [1] (absolute fold change >2 and FDR-adjusted P-value <0.001 versus water, 5 μM KFF-/RXR-constructs, 10 μM Tat-constructs) amounted to 5. In assay [1] (RNA-seq, 5 μM), the “upregulation of AmgR transcript levels” value is on record as roughly 1.9 fold; the “upregulation of mig-14, virK and yfiA mRNAs” value is 2- to 4 fold. Besides, the “logFC yfiA” value in assay [1] (edgeR, versus water, 5 μM KFF-/RXR-constructs, 10 μM Tat-constructs, triplicates) was found to be 1.09. In assay [1] (setting [8]), the “logFC mig-14” value was 1.3466 and the “logFC virK” value was 1.758. The “MIC in μM, SL1344 ΔphoP” value in the assay with SL1344 ΔphoP was “did not alter the MIC and 1.25 μM”. In assay [2], the “MIC in μM, LT2 wt” value is 1.25 µM. Also, the “MIC” value in assay [3] (Table 1, ∼10^5 cfu/ml) was 5 mg/L. In addition, in assay [3] (setting [5]), the minimal inhibitory concentration (MIC) turned out to be 1.25 µM. The minimal inhibitory concentration (MIC) in assay [3] (setting [6]) came out at 5 µM. Moreover, the “MIC in μM, SL1344 wt” value in assay [3] (∼10^5 cfu/ml) was determined as 1.25 µM.
